Experimental data from patent US6946447B2, “MDM2-specific antisense oligonucleotides” (Hybridon, Inc., priority 1997, dated 2005).
Read-outs that look alike come from different tables or passages of the source. Strand notation (5' to 3'): a small letter for the sugar, then the base; units joined by * are phosphorothioate-linked, units joined directly phosphodiester-linked; [ ] holds rarer units or linkages, { } end groups; capitals alone tell only the bases. d = 2'-deoxy (DNA)

How the values were obtained:
MDM2 [1] = assay: MDM2 protein level by immunoprecipitation/Western blot in oligonucleotide-treated cells; format: cell-based, human; details: JAR cells, 18 h, Lipofectin 7 μg/ml, Western blot (FIG. 2A)
MDM2 mRNA = assay: Northern blot of MDM2 mRNA in JAR cells; format: cell-based, human; details: 200 nM, 18 h
Procedure: JAR cells were treated with 200 nM of antisense oligonucleotide AS5 (SEQ ID NO:28) with no oligonucleotide, with 200 nM of control oligonucleotide M4 (SEQ ID NO:5). After 18 hours, the treated cells were harvested and RNA was purified and quantitated according to standard methods. (see e.g., Current Protocols in Molecular Biology, John Wiley & Sons Inc. (1995)). Twenty μg of total RNA were run on a 1% agarose denaturing gel. MDM2 mRNA was detected by hybridization using an EcoRI-NcoI fragment specific for the human MDM2 cDNA between nucleotides 310-1633. The filter was then stripped and reprobed with a 1.2 kb fragment, which is a full length human GAPDH cDNA to normalize values on the basis of loading variations, according to standard methods.

p21/WAF1 [2] = assay: p21/WAF1 induction by Western blot in JAR cells; format: cell-based, human; details: 200 nM, relative to control-treated cells
Procedure: To assess the ability of the oligonucleotides of the invention to induce the expression of a p53-inducible gene, p21/WAF1 levels were examined in oligonucleotide-treated JAR cells. Total protein was purified from control oligonucleotide-treated cells and from antisense oligonucleotide-treated cells (200 nM oligonucleotide AS5) as described in Example 1. Equal amounts of purified total protein were immunoprecipitated and analyzed by Western blotting carried out for MDM2 detection using a polyclonal rabbit anti-human p21/WAF1 serum. Following hybridization, the blots were exposed to XAR film (Eastman Kodak, Rochester, N.Y.) and the autoradiograms are quantitated by phosphoroimaging.

p53 [3] = assay: p53-responsive BP100-luciferase reporter in JAR cells; format: cell-based, human
[4] = test system: JAR-TK-luc and H1299-BP100-luc cells; assay: Control luciferase reporters in JAR-TK-luc and H1299-BP100-luc cells; format: cell-based, human
Procedure: JAR cells stably transfected with a luciferase reporter driven by the thymidine kinase gene promoter (JAR-TK-luc) and H1299 cells containing no p53 that had been stably transfected with BP100-luciferase (H1299-BP1000-luc) were also tested. […] Similar results were also observed using AS5 in osteosarcoma SJSA cells (data not shown).

p53-MDM2 complex = assay: Co-immunoprecipitation of p53-MDM2 complex in JAR cells; format: cell-based, human
Source text: Protein lysates from JAR cells treated with antisense oligonucleotides as described in Example 1 were immunoprecipitated with anti-p53 monoclonal antibody Pab421 (FIGS. 4A and 4B) (Harlow et al. J. Virol. 39:861-869 (1981)) or with polyclonal antibody 2A10 (panel C) according to the methods described in Example 1. The gel was then transferred onto an Immobilon P membrane (Millipore, Bedford, Mass.) to detect MDM2 co-precipitates.

JAR cells [5] = assay: Induction of apoptosis / cell death in JAR cells; format: cell-based, human; details: 400 nM
Procedure: JAR cells (ATCC) were grown in DMEM medium supplemented with 1% FBS according to standard cell culture techniques. Cells were then treated for 30 hours with growth medium containing 400 nM of either antisense oligonucleotide AS5 (SEQ ID NO:28) complementary to a portion of MDM2-encoding RNA or control oligonucleotide M4 (SEQ ID NO:5), and 7 μg/ml lipofectin (Gibco BRL Paisley, UK). Treated cells were then photographed using a phase contrast microscope.
JAR cells were treated for 24 hours as described in Example 6. Floating cells were harvested and chromosomal DNA was extracted according to standard techniques (Liu et al., Cell 86:147-157 (1996)). Purified DNA was then analyzed by agarose gel electrophoresis on a 2% agarose gel. Following electrophoresis the gel was stained with 0.5 μg/ml ethidium bromide.

tumor cell lines [6] = assay: Cell death / apoptosis in other cell lines; format: cell-based, human; details: H1299 cells (lack p53)
p53 [7] = assay: Nuclear p53 level by immunofluorescence staining with Pab1801; format: cell-based, human; details: MCF-7 cells, 200 nM, 20 hr
MDM2 [8] = details: JAR and SJSA cells, 100-400 nM, Lipofectin; cited from earlier work
p21/WAF1 [9] = details: optimal concentration 200 nM; cited from earlier work
JAR cells [10] = details: cited from earlier work
tumor cell lines [11] = details: H1299 cells that lack p53; cited from earlier work

With “AS5: anti-MDM2 antisense PS-oligo SEQ ID NO:28, 5′-GATCACTCCCACCTTCAAGG-3′ (DNA dG*dA*dT*dC*dA*dC*dT*dC*dC*dC*dA*dC*dC*dT*dT*dC*dA*dA*dG*dG)” the “inhibition of MDM2 expression” value (MDM2 [1]) was 3-5 fold, the “increase of MDM2 mRNA” value (MDM2 mRNA) was 2.5 fold and the “molecular weight of the MDM2 mRNA band” value (MDM2 mRNA) was “slight decrease in the molecular weight of the MDM2 mRNA band”. The “induction of p21/WAF1” value (p21/WAF1 [2]) was “up to 6.6 fold”, the “induction of p53 activity among the initial antisense oligonucleotides tested” value (p53 [3]) was “most effective” and the “activation of p53-responsive reporter expression” value (p53 [3]; JAR BP100-luc, 200 nM, 24 h) was 7 fold. For the same substance, the “activation of the p53 reporter” value (p53 [3]; JAR BP100-luc, 48 h, AS5 200 nM, CPT alone, AS5 alone or co-incubation) was 17 fold, the “activation of reporter gene in control cells” value [4] was “did not activate the reporter gene” and the “total p53 levels” value (p53-MDM2 complex; JAR cells (FIG. 4A)) was “did not change”. The “amount of MDM2 co-precipitated with p53” value (p53-MDM2 complex; JAR cells (FIG. 4B)) was “reduced”, the “chromosomal DNA cleavage in floating cells” value (JAR cells [5]; 24 h, agarose gel) was “nucleosomal-sized low molecular weight bands characteristic of apoptosis” and the “cell death / apoptosis morphology” value (JAR cells [5]; 30 h, Lipofectin) was “induced significant cell death”. For the same substance, the apoptosis (tumor cell lines [6]) was “did not cause visible apoptosis”, the “nuclear p53 staining” value (p53 [7]) was “similar, but weaker” and the “decrease of MDM2 protein levels” value (MDM2 [8]) was 3-5 fold. For the same substance, the “induction of p21 expression” value (p21/WAF1 [9]) was “up to 6.6 fold”, the apoptosis (JAR cells [10]) was “significant increase in the levels of apoptosis” and the apoptosis (tumor cell lines [11]) was “did not cause visible apoptosis”.
